Legend:
Format in all cases: cell-based, human
[1] = test system: HuTu 80 cells; assay: Cell apoptosis assay, Annexin V/propidium iodide flow cytometry; conditions: HuTu 80, 48-h incubation, IC50/2 and IC50
Method: HuTu 80 cells at a rate of 1 × 10^6 cells/well were seeded into six-well plates and incubated until a monolayer formed for approximately 24 h. After […] of incubation, various concentrations of compounds 4b, 5b, 6a, and 8 were added to the wells.
Cells were detached with a trypsin-versene solution (1:3), suspended in PBS, and collected at 2000 rpm for 5 min. Cells were then washed twice with ice-cold PBS, followed by resuspension in binding buffer. Next, the samples were incubated with 5 μL of Annexin V Alexa Fluor 647 (Sigma-Aldrich, St. Louis, MO, USA) and 5 μL of propidium iodide for 15 min at room temperature in the dark. Finally, the cells were analyzed by flow cytometry in the Red-R (661/15 nm)—annexin and Near IR-B (785/70 nm)—PI channels on a Guava easyCyte flow cytometer (Merck Millipore, Burlington, MA, USA) for 1 h. The experiments were repeated three times.

[2] = test system: caspase 9; assay: Caspase 9 ELISA in cell lysates; conditions: HuTu 80 lysates, IC50/2 and IC50, compared with the control
Method: (§1) In vitro quantitative measurement of caspase-9 and caspase-8 was performed using ELISA kits (ELISA Kit for Caspase 9 and ELISA Kit for Caspase 8, Human Cloud-Clone Corp., Wuhan, China). The analysis was carried out according to the manufacturer’s instructions. Samples were standardized for total protein content (1 mg/mL). Protein concentration was determined with Coomassie-based assays using Bredford Dye Reagent (Bio-Rad, Hercules, CA, USA). The absorbance was measured using a microplate reader, EPOCH (BioTek Instruments, Inc., Winooski, VT, USA), at a wavelength of 450 ± 10 nm. Lysates of untreated HuTu 80 cells were used as controls.
(§2) To confirm that apoptosis induced by compounds 4b, 5b, 6a, and 8 proceeds along the internal (mitochondrial) pathway, studies were conducted to determine the enzymatic activity of the early apoptosis key markers—caspase 9 and caspase 8 using ELISA kits. The kits are sandwich enzyme immunoassays for in vitro quantitative measurement of Caspase 8 and Caspase 9 in cell lysates, rat tissue homogenates, and other biological fluids. Caspase 9 plays a key role in the mitochondrial signaling pathway of apoptosis induction. The activation of caspase 8 characterizes the external (receptor-dependent) pathway of apoptosis. HuTu 80 cells not treated with the tested compounds were used as a control.

[3] = test system: caspase 8; assay: Caspase 8 ELISA in cell lysates; conditions: HuTu 80 lysates, relative to the control
Method: as §1, §2

CCCCCCCC[P+](N(CC)CC)(N(CC)CC)N(CC)CC [4b, Tris(diethylamino)(octyl)phosphonium iodide]
apoptosis-inducing effect (in words) [1]: dose-dependent apoptosis | concentration of caspase 9 (in words) [2]: significantly increased | concentration of caspase 8 (in words) [3]: significantly decreased

CCCCCCCC[P+](c1ccccc1)(N(CC)CC)N(CC)CC [5b, Bis(diethylamino)(octyl)(phenyl)phosphonium iodide]
apoptosis-inducing effect (in words) [1]: dose-dependent apoptosis | concentration of caspase 9 (in words) [2]: significantly increased | concentration of caspase 8 (in words) [3]: significantly decreased

CCCCCC[P+](c1ccccc1)(c1ccccc1)N(CC)CC [6a, (Diethylamino)(hexyl)diphenylphosphonium iodide]
apoptosis-inducing effect (in words) [1]: number of necrotic cells prevailed | concentration of caspase 9 (in words) [2]: significantly increased

CCCCCCCC[P+](c1ccccc1)(c1ccccc1)c1ccccc1 [compound 8, Octyltriphenylphosphonium iodide, reference compound]
apoptosis-inducing effect (in words) [1]: more active in the early stage of apoptosis | concentration of caspase 9 (in words) [2]: significantly increased

Source: PMC10649961, “Novel Mitochondria-Targeted Amphiphilic Aminophosphonium Salts and Lipids Nanoparticles: Synthesis, Antitumor Activity and Toxicity” (Nanomaterials, 2023)
